Data set [1] in a line: xn = mol fraction of the nth substance listed. Particulars: 101 kPa, Liquid, x2 = 0.
The conditions of data set [2]: 101 kPa, Liquid.

Results on two compounds are retold here after the NIST ThermoML archive (doi:10.1016/j.jct.2004.11.017).

Numbers after ± are expanded uncertainties.

The term mass density denotes the mass of a sample divided by its volume.

Regarding `O` [water] + CC[S+]([O-])CC, the mass density in data set [1] (298.15 K) came out at 996.6 ± 1.3 kg/m3; in data set [1] (303.15 K), 995.2 ± 1.4 kg/m3; in data set [1] (308.15 K) it was 993.6 ± 1.4 kg/m3; in data set [1] (313.15 K) it was 991.9 ± 1.4 kg/m3; in data set [1] (318.15 K), 989.7 ± 1.4 kg/m3; in data set [1] (323.15 K), 987.6 ± 1.5 kg/m3. Also, the mass density in data set [1] (328.15 K) stood at 985.3 ± 1.5 kg/m3; in data set [1] (333.15 K), 982.8 ± 1.6 kg/m3; in data set [1] (338.15 K), 979.3 ± 1.6 kg/m3; in data set [1] (343.15 K), 977.5 ± 1.6 kg/m3.

On to `CC[S+]([O-])CC` [diethyl sulfoxide], for which the mass density in data set [2] (298.15 K) is given as 1010.2 ± 1.4 kg/m3; in data set [2] (303.15 K), 1005.8 ± 1.4 kg/m3; in data set [2] (308.15 K), 1001.4 ± 1.3 kg/m3; in data set [2] (313.15 K), 997 ± 1.3 kg/m3; in data set [2] (318.15 K) it was 992.6 ± 1.4 kg/m3; in data set [2] (323.15 K), 988.2 ± 1.5 kg/m3. Also, the mass density in data set [2] (328.15 K) stood at 983.9 ± 1.5 kg/m3; in data set [2] (333.15 K), 979.5 ± 1.6 kg/m3; in data set [2] (338.15 K), 975.1 ± 1.7 kg/m3; in data set [2] (343.15 K), 970.6 ± 1.8 kg/m3.
